Laboratory results published in US7572600B2, “Enzymatic activities in chemokine-mediated inflammation” (Chemocentryx, Inc., priority 2004, dated 2009).
Where no end group is shown, it is not given here.

How the values were obtained:
[1] = system: monocyte-derived dendritic cells; test: Calcium mobilization in monocyte-derived dendritic cells; assay type: cell-based, human
Description: Human monocytes were obtained from buffy coats purchased from the Stanford Blood Bank (Palo Alto, Calif.) by sedimentation on Ficoll-Paque (Amersham, Piscataway, N.J.) and selection with anti-CD14 magnetic beads (Miltenyi, Auburn, Calif.) according to the manufacturers' instructions. For generation of dendritic cells, monocytes were cultured for 6 days in RPMI-1640 medium containing 10% FBS (HyClone, Logan, Utah). On days 0, 2 and 4, GM-CSF and IL-4 (both purchased from R&D Systems, Minneapolis, Minn.) were added to the cultures at 1000 WHO unit/ml each. The cells were confirmed to be CD14^−CD1a^+ immature DC by FACS staining on day 6.
Calcium Mobilization Assay. Cells were loaded for 1 hour with 2 μM indo-1/AM dye (Molecular Probes, Eugene, Oreg.) in culture medium, then washed with 10 ml PBS and resuspended at 10^6/ml in HBSS containing 1% FBS. Cytosolic calcium responses were determined using a Photon Technology International (Lawrenceville, N.J.) fluorimeter, with excitation at 350 nm and dual emission at 400 and 490 nm. Alternatively, cells were loaded with 5 μg/ml Fluo-4 AM dye (Molecular Probes, Eugene, Oreg.), then washed and analyzed on a Fluorometric Imaging Plate Reader 384 (FLIPR^384 Molecular Devices, Sunnyvale, Calif.), with 505 nm excitation and 530 nm emission.
Immature and mature DC preparation. Immature DCs were derived by culturing CD14+ monocytes in T-175 cultured flasks at a density of 10^6 cells/ml in RPMI supplemented with 10% FBS. Recombinant human cytokines GM-CSF and IL-4 (final concentration 1000 and 500 U/ml, respectively) were added on day 0, 2, 4 and 6. Cells were harvested on day 6 as immature DCs and characterized for surface marker expression by flow cytometry. DC maturation was carried out by culturing day-6 immature DCs in RPMI-10% FBS supplemented with GM-CSF, IL-4 and 50 μg/ml polyIC (Sigma, St. Louis Mo.). After two more days of culture, cells were harvested as mature DCs and characterized by surface marker expression by flow cytometry.
Receptor signaling assay. For individual measurements, cells were loaded for 45 min at room temperature with 2 μM indo-1/AM (Invitrogen, Carlsbad Calif.) in culture medium, then washed with 10 ml PBS and resuspended at 10^6 cells/ml in HBSS containing 0.1% BSA. Cytosolic calcium levels were determined using a Photon Technology International fluorimeter (excitation at 350 nm, ratio of dual emission at 400 and 490 nm). For measuring calcium dose responses, cells were analyzed with a Fluorometric Imaging Plate Reader 384 (FLIPR^384) (Molecular Devices, Sunnyvale, Calif.). Cells were loaded for 1 hr at 37° C. with 5 μM fluo-4 in HBSS with 0.1% BSA, then washed, transferred to black-wall 96-well plates, and subsequently excited at 505 nm with emission recorded at 530 nm with a standard protocol provided by the manufacture. Cells were stimulated with agonists 20 s after the monitoring of fluorescence began. Data were analyzed and plotted in arbitrary units of fluorescence using Prism. To ensure that responses were specific to FPRL1, we utilized a selective small-molecule antagonist of human FPRL1, generated by ChemoCentryx, which was optimized from a high throughput compound library screening approach.

[2] = system: human monocytes; test: Chemotaxis of human monocytes; assay type: cell-based; details: undigested
Description: (§1) Chemotaxis assay. L1.2-CCR1 transfectants, THP-1 cells, human monocytes and human neutrophils were collected by centrifugation and resuspended in HBSS containing 0.1% BSA. Chemotaxis assays were performed in 96-well ChemoTx® microplates (Neuroprobe, Rockville, Md.) as follows. Chemokines were added to the lower wells (final volume 29 μL), and 20 μL of cell suspension (5×10^6 cells/mL) was added to the polycarbonate filter (3 μm pore size for neutrophils, 5 μm for other 3 cell types). After incubation at 37° C. in the presence of 5% CO2 for 1 hr (neutrophils), 90 min (monocytes) or 2 h (THP-1 and L1.2-CCR1), cells were removed from the upper surface of the filter by scraping. Cells that migrated into the lower chamber were quantified by using the CyQuant cell proliferation assay kit (Molecular Probes, Eugene, Oreg.) and analyzed with a Tecan (Durham, N.C.) fluorimeter (excitation at 480 nm, emission at 530 nm). Data were analyzed and plotted in arbitrary units of fluorescence using Prism (GraphPad Software, San Diego, Calif.).
(§2) Chemotaxis assays. L1.2-CCR1 and L1.2-FPRL1 transfectants, monocytes and neutrophils were collected by centrifugation and resuspended in HBSS with 0.1% BSA. The assays were performed in 96-well ChemoTx® microplates (Neuroprobe, Rockville, Md.). Chemokines were diluted in HBSS with 0.1% BSA and added to the lower wells (final volume 29 μL), then 20 μL of cell suspension (5×10^6 cells/mL for monocytes; 2.5×10^6 cells/mL for neutrophils) were added to the polycarbonate filters (5 μm pore size for monocytes and FPRL1 transfectants; 3 μm pore size for neutrophils). After incubation for 90 min (37° C., 100% humidity, 5% CO2), the filters were removed and the cells that migrated into the lower chamber were quantified by using the CyQuant cell proliferation assay kit (Molecular Probes, Oreg.).

[3] = system: human neutrophils; test: Chemotaxis of human neutrophils; assay type: cell-based
Description: as §1, §2

Row | Molecule | calcium response ([1]; immature DC, undigested) | calcium response ([1]; mature DC) | chemotaxis [2] | chemotaxis [3]
1 | MLWRRKIGPQMTLSHAAG [SHAAGtide] | much smaller calcium response | small amount of signaling activity | vigorous chemotaxis | vigorous chemotaxis
2 | CCL23β Δ24: truncated form of CCL23β lacking the 24-residue N-terminal domain, beginning with the SHAAGtide insertion (protein, listed as Homo sapiens) MLWRRKIGPQMTLSHAAGFHATSADCCISYTPRSIPCSLLESYFETNSECSKPGVIFLTKKGRRFCANPSDKQVQVCMRMLKLDTRIKTRKN | strong calcium response | diminished | vigorous chemotaxis | vigorous chemotaxis
